Experimental data as given in ChEMBL document CHEMBL3994632, “Selenoesters and selenoanhydrides as novel multidrug resistance reversing agents: A confirmation study in a colon cancer MDR cell line” (Bioorg Med Chem Lett, 2017).

Key:
[1] = tested on: COLO 320; experiment: Cytotoxicity against multidrug resistant human COLO320 cells after 24 hrs by MTT assay; format: functional, cell-based; conditions: COLO 320, 24 h
[2] = tested on: MRC5; experiment: Cytotoxicity against human MRC5 cells after 24 hrs by MTT assay; format: ADME, cell-based; conditions: MRC5, 24 h
[3] = tested on: COLO 320; experiment: Induction of apoptosis in human COLO320 cells at 2 uM after 24 hrs by Annexin V-FITC/propidium iodide staining based flow cytometry relative to M627; format: functional
[4] = tested on: COLO 205; experiment: Cytotoxicity against doxorubicin-sensitive human COLO205 cells after 24 hrs by MTT assay; format: functional, cell-based; conditions: COLO 205, 24 h
[5] = Selectivity index, ratio of IC50 for human MRC5 cells to IC50 for multidrug resistant human COLO320 cells; format: functional
[6] = Selectivity index, ratio of IC50 for human MRC5 cells to IC50 for doxorubicin-sensitive human COLO205 cells; format: functional
[7] = Selectivity index, ratio of IC50 for doxorubicin-sensitive human COLO205 cells to IC50 for multidrug resistant human COLO320 cells; format: functional
[8] = target: ATP-dependent translocase ABCB1 (Homo sapiens, UniProt P08183); experiment: Inhibition of human MDR1 transfected in mouse T lymphoma cells assessed as rhodamine-123 accumulation measured as fluorescence activity ratio quotient at 2 uM preincubated for 10 mins followed by rhodamine-123 addition measured after 20 mins by flow cytometry relative to verapamil; format: cell-based; design: scale not given: the % may be the effect or the level left
[9] = tested on: COLO 320; experiment: Induction of apoptosis in human COLO320 cells assessed as early apoptotic cells at 20 uM after 24 hrs by Annexin V-FITC/propidium iodide staining based flow cytometry (reference value: 20.3%); format: functional
[10] = tested on: COLO 320; experiment: Induction of apoptosis in human COLO320 cells assessed as late apoptotic/necrotic cells at 20 uM after 24 hrs by Annexin V-FITC/propidium iodide staining based flow cytometry (reference value: 9.93%); format: functional
[11] = tested on: COLO 320; experiment: Induction of apoptosis in human COLO320 cells assessed as cell death at 20 uM after 24 hrs by Annexin V-FITC/propidium iodide staining based flow cytometry (reference value: 4.75%); format: functional

ATP-dependent translocase ABCB1, sequence (P08183 whole entry): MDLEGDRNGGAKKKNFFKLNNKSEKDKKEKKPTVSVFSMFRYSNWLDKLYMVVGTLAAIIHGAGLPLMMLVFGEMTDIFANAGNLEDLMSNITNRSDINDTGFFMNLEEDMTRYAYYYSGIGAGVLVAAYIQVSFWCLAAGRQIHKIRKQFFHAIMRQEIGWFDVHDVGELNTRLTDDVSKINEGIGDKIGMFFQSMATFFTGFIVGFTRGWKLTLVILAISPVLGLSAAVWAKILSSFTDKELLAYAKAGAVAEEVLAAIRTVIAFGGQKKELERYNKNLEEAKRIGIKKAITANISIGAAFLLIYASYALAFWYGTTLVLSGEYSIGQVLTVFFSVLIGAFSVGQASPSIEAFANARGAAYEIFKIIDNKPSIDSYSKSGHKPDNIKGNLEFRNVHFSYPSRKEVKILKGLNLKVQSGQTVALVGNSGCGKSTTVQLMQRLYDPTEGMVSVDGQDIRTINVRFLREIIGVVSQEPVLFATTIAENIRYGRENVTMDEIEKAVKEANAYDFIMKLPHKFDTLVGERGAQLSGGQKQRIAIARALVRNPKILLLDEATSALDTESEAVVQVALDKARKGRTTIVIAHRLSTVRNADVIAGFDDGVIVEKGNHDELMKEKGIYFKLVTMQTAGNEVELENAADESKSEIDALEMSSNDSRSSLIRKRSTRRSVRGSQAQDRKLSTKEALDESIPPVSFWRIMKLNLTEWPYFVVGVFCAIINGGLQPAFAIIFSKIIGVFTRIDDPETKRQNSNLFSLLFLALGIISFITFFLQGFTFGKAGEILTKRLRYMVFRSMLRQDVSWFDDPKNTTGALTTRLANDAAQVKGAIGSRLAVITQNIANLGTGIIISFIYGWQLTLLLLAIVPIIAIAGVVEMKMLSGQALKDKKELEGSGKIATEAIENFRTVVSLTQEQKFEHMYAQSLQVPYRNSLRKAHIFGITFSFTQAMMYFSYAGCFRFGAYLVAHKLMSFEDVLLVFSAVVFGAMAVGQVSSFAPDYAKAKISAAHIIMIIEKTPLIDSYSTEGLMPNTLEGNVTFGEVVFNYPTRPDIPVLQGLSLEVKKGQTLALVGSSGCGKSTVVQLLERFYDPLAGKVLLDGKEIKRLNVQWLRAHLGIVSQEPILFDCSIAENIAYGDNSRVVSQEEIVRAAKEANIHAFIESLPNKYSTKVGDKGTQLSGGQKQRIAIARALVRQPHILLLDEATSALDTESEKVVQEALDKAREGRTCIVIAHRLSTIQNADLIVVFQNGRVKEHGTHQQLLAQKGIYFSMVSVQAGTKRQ

N#C[O-].[K+]
IC50 [1]: > 100 µM | IC50 [2]: > 100 µM | Activity [3]: 7.28% | IC50 [4]: > 100 µM

NC(=O)C[Se]C(=O)c1ccccc1
Ratio IC50 [5]: <=0.77 | IC50 [1]: > 100 µM | IC50 [2]: 76.6 µM | Activity [3]: 37.3% | IC50 [4]: > 100 µM | Ratio IC50 [6]: <=0.77

CC(C)(C)C(=O)C[Se]C(=O)c1ccc(Cl)cc1
Ratio IC50 [5]: 8.4 | IC50 [1]: 0.96 µM | IC50 [2]: 8.1 µM | Activity [3]: 80.3% | Ratio IC50 [7]: 1.7 | IC50 [4]: 1.63 µM | Activity [8]: 34 to 217% | Ratio IC50 [6]: 5

C[Se]C(=O)c1cccc(C(=O)[Se]C)c1
Ratio IC50 [5]: 2.3 | IC50 [1]: 12.5 µM | IC50 [2]: 28.4 µM | Activity [3]: 36.3% | Ratio IC50 [7]: >=8 | IC50 [4]: > 100 µM | Ratio IC50 [6]: <=0.28

c1ccc2c(c1)Nc1c(ccc3ccccc13)S2
Activity [9]: 58.5% | Activity [10]: 22% | Activity [11]: 2.91%

O=C(C[Se]C(=O)c1ccccc1)Oc1ccccc1
Ratio IC50 [5]: >=1.9 | IC50 [1]: 53.7 µM | IC50 [2]: > 100 µM | Activity [3]: 43% | Ratio IC50 [7]: >=1.9 | IC50 [4]: > 100 µM

COc1cc(OC)cc(C(=O)[Se]CC(=O)C(C)(C)C)c1
Ratio IC50 [5]: 14.4 | IC50 [1]: 0.35 µM | IC50 [2]: 5.04 µM | Activity [3]: 88.7% | Ratio IC50 [7]: 3.4 | IC50 [4]: 1.19 µM | Activity [8]: 46 to 228% | Ratio IC50 [6]: 4.2

O=C1OC(=O)c2ccccc21 [PHTHALIC ANHYDRIDE]
IC50 [1]: > 100 µM | IC50 [2]: > 100 µM | Activity [3]: 6.06% | IC50 [4]: > 100 µM

C[Se]C(=O)c1ccc(C(=O)[Se]C)cc1
Ratio IC50 [5]: <=0.62 | IC50 [1]: > 100 µM | IC50 [2]: 61.5 µM | Activity [3]: 36.9% | IC50 [4]: > 100 µM | Ratio IC50 [6]: <=0.62

COC(=O)C[Se]C(=O)c1ccc(Cl)cc1
Ratio IC50 [5]: <=0.33 | IC50 [1]: > 100 µM | IC50 [2]: 33.4 µM | Activity [3]: 43.4% | IC50 [4]: > 100 µM | Ratio IC50 [6]: <=0.33

N#C[Se-].[K+]
IC50 [1]: > 100 µM | IC50 [2]: > 100 µM | Activity [3]: 6.98% | IC50 [4]: > 100 µM

O=C1[Se]C(=O)c2ccccc21
Ratio IC50 [5]: >=1.6 | IC50 [1]: 63.9 µM | IC50 [2]: > 100 µM | Activity [3]: 88.4% | Ratio IC50 [7]: >=1.6 | IC50 [4]: > 100 µM

C[Se]C(=O)c1cccc(C(=O)[Se]C)n1
Ratio IC50 [5]: <=0.18 | IC50 [1]: > 100 µM | IC50 [2]: 17.9 µM | Activity [3]: 36.9% | IC50 [4]: > 100 µM | Ratio IC50 [6]: <=0.18

C[Se]C(=O)c1ccc(C(=O)[Se]C)s1
Ratio IC50 [5]: <=0.04 | IC50 [1]: > 100 µM | IC50 [2]: 4.26 µM | Activity [3]: 30.4% | IC50 [4]: > 100 µM | Ratio IC50 [6]: <=0.04

CC(=O)C[Se]C(=O)c1ccc(Cl)cc1
Ratio IC50 [5]: 9.7 | IC50 [1]: 0.55 µM | IC50 [2]: 5.35 µM | Activity [3]: 87.7% | Ratio IC50 [7]: 10 | IC50 [4]: 5.48 µM | Ratio IC50 [6]: 0.98

N.N#CS
IC50 [1]: > 100 µM | IC50 [2]: > 100 µM | Activity [3]: 9.55% | IC50 [4]: > 100 µM
